Results as given in patent US11564875B2, “Cosmetic composition for skin regeneration” (Amorepacific Corporation, priority 2018, dated 2023).

Experiments:
[1] = test system: AQP3, PPAR-α, PPAR-β, K5, and K14 gene level in human keratinocyte cell line (HaCaT cells); assay: Skin regeneration effect after ultraviolet (UV) irradiation: gene level changes in UVA-irradiated HaCaT cells; assay type: cell-based; conditions: for skin regeneration effect: HaCaT cells
Text: A human keratinocyte cell line (HaCaT cells) was irradiated with ultraviolet (UVA) (2 J/cm^2, 3 J/cm^2) and then, treated with a compound represented by Chemical Formula 1-1 (camellenodiol), which was obtained by extracting 10 kg of dry camellia powder with water-soluble ethanol and subsequently, performing filtration, concentration under a reduced pressure, and purification by using HP-20 and silica chromatography, to exam AQP3, PPAR-α, PPAR-β, K5, and K14 gene level changes, and the results are shown in FIGS. 1 to 4.

[2] = Cytotoxicity evaluation using a serum-free media; assay type: cell-based
Protocol: A cytotoxicity evaluation of the compound represented by Chemical Formula 1-1 was twice performed by using a serum-free media, and the results are shown in FIGS. 5 and 6. Referring to FIGS. 5 and 6, a significant cytotoxicity concentration of the compound represented by Chemical Formula 1-1 was 20 μM (cell viability<80%).

CC1(C)CC[C@]2(O)C(=O)C[C@]3(C)C(=CC[C@@H]4[C@@]5(C)CC[C@H](O)C(C)(C)[C@@H]5CC[C@]43C)[C@@H]2C1 [Chemical Formula 1-1, camellenodiol]
levels of the genes (AQP3, PPAR-α, PPAR-β, K5, K14) ([1]; HaCaT cells after UVA irradiation (2 J/cm^2, 3 J/cm^2), compound at 5 μM to 10 μM, specifically 7.5 μM, FIGS. 1 to 4): significantly increased | skin regeneration effect ([1]; UVA 2 J/cm^2, compound at 7.5 μM to 10 μM): excellent skin regeneration effect | skin regeneration effect ([1]; UVA 3 J/cm^2, compound at 5 μM to 7.5 μM): excellent skin regeneration effect | cell viability ([2]; at 20 μM): < 80% | significant cytotoxicity concentration ([2]; performed twice, criterion cell viability<80%, FIGS. 5 and 6): 20 µM
